Where a name gives a salt, the structure may show the parent alone.
Tested on: leptin production
Experiment: Enhancing activity for leptin production in adipocytes (ELISA)
Format: cell-based, rat
Conditions: leptin concentration as % of control group; for activity at 1 µM / activity at 0.1 µM / activity at 0.001 µM / activity at 0.01 µM: Rattus norvegicus, Adipocyte, 24 h, read-out: Facilitating activity to produce leptin; for activity at 0.001 µM: 1 nm; for Facilitating activity to produce leptin: 24 hr
Method in brief: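 Collagenase-dispersed epididymal adipocytes from 6-week-old male Wistar Imamichi rats, cultured in DMEM/F-12 (1:1) with test compound at final 1 µM, 100 nM, 10 nM or 1 nM (0.1% DMSO) for 24 h at 37 °C, 5% CO2. Leptin in filtrate measured by ELISA; activity = treated/DMSO-control leptin × 100 (%).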

Row | Molecule | activity at 1 µM (1 μM) [%] | activity at 0.1 µM (100 nm) [%] | activity at 0.01 µM (10 nm) [%] | also measured
1 | COc1ccc(NC(=O)c2cc([N+](=O)[O-])ccc2Cl)cc1-c1ccccc1 [Example 6, N-(4-Methoxy-3-phenyl)phenyl-(2-chloro-5-nitrophenyl)carboxamide] | 108 | 111 |  | 
2 | O=C(Nc1ccccc1-c1ccccc1)c1cc([N+](=O)[O-])ccc1Cl [Example 7, N-(2-Phenylphenyl)-(2-chloro-5-nitrophenyl)carboxamide] |  | 114 |  | 
3 | CCOC(=O)c1ccc(NC(=O)c2cc([N+](=O)[O-])ccc2Cl)cc1 [Example 26, N-(4-Ethoxycarbonylphenyl)-(2-chloro-5-nitrophenyl)carboxamide] |  | 115 |  | 
4 | CC(C)(C)c1cc(NC(=O)c2cc([N+](=O)[O-])ccc2Cl)cc(C(C)(C)C)c1O [Example 29, N-(3,5-Di-t-butyl-4-hydroxyphenyl)-(2-chloro-5-nitrophenyl)carboxamide] | 142 |  |  | 
5 | Cc1ccccc1-c1csc(NC(=O)c2cc([N+](=O)[O-])ccc2Cl)n1 [Example 39, N-[4-(2-Methylphenyl)thiazol-2-yl]-(2-chloro-5-nitrophenyl)carboxamide] | 119 | 109 |  | 
6 | O=C(Nc1cccnc1)c1cc([N+](=O)[O-])ccc1Cl [Example 50, N-(3-Pyridyl)-(2-chloro-5-nitrophenyl)carboxamide] | 109 | 119 | 124 | activity at 0.001 µM: 118%
7 | Cc1ccc(NC(=O)c2cc([N+](=O)[O-])ccc2Cl)nc1 [Example 52, N-(5-Methylpyridin-2-yl)-(2-chloro-5-nitrophenyl)carboxamide] |  |  |  | activity at 0.001 µM: 111%
8 | O=C(Nc1ccc2c3c(cccc13)CC2)c1cc([N+](=O)[O-])ccc1Cl [Example 54, N-(Acenaphthen-5-yl)-(2-chloro-5-nitrophenyl)carboxamide] | 113 |  |  | 
9 | Cc1cc(Cl)nc(NC(=O)c2cc([N+](=O)[O-])ccc2Cl)n1 [Example 78, N-(4-Chloro-6-methylpyrimidin-2-yl)-(2-chloro-5-nitrophenyl)carboxamide] | 114 | 126 |  | 
10 | Cn1c(NC(=O)c2cc([N+](=O)[O-])ccc2Cl)nc2ccccc21 [Example 82, N-(1-Methylbenzimidazol-2-yl)-(2-chloro-5-nitrophenyl)carboxamide] | 111 | 108 |  | 
11 | O=C(Nc1cccc2nsnc12)c1cc([N+](=O)[O-])ccc1Cl [Example 86, N-(2,1,3-Benzothiazol-4-yl)-(2-chloro-5-nitrophenyl)carboxamide] |  | 110 |  | 
12 | CC(C)(C)OC(=O)Nc1ccc(-c2ccc(NC(=O)c3cc([N+](=O)[O-])ccc3Cl)cc2)cc1 [Example 87, N-[4-[4-(tert-Butoxycarbonylamino)phenyl]phenyl]-(2-chloro-5-nitrophenyl)carboxamide] | 115 | 113 |  | 
13 | Cc1cc(NS(=O)(=O)c2ccc(NC(=O)c3cc([N+](=O)[O-])ccc3Cl)cc2)no1 [Example 99] |  |  |  | Facilitating activity to produce leptin (1 μM): 113.9%
14 | CCCCCCN(CCCCCC)c1ccc(NC(=O)c2cc([N+](=O)[O-])ccc2Cl)cc1 [Example 138, N-[4-(N,N-di-n-Hexylamino)phenyl]-(2-chloro-5-nitrophenyl)carboxamide] | 111 |  |  | 
15 | CN(C)c1cccc(NC(=O)c2cc([N+](=O)[O-])ccc2Cl)c1 [Example 176, N-(3-Dimethylamino)phenyl-(2-chloro-5-nitrophenyl)carboxamide] |  | 110 |  | 
16 | CCCCCCNc1ccc(-c2ccc(NC(=O)c3cc([N+](=O)[O-])ccc3Cl)cc2)cc1 [Example 195, N-[4-[4-(N-Hexylamino)phenyl]phenyl]-(2-chloro-5-nitrophenyl)carboxamide] | 120 | 123 | 114 | 

Row | Molecule | activity at 1 µM (1 μM) [%] | activity at 0.1 µM (100 nm) [%] | activity at 0.01 µM (10 nm) [%] | also measured
17 | CCCCCCCCNc1ccc(-c2ccc(NC(=O)c3cc([N+](=O)[O-])ccc3Cl)cc2)cc1 [Example 219, N-[4-[4-(N-Octylamino)phenyl]phenyl]-(2-chloro-5-nitrophenyl)carboxamide] | 117 | 119 | 113 | 
18 | CCCCCCCCN(CCCCCC)c1ccc(-c2ccc(NC(=O)c3cc([N+](=O)[O-])ccc3Cl)cc2)cc1 [Example 220, N-[4-[4-(N-Hexyl-N-octylamino)phenyl]phenyl]-(2-chloro-5-nitrophenyl)carboxamide mono-hydrochloride] | 111 |  |  | 
19 | CCCCCCCCN(CCCC)c1ccc(-c2ccc(NC(=O)c3cc([N+](=O)[O-])ccc3Cl)cc2)cc1 [Example 222, N-[4-[4-(N-Butyl-N-octylamino)phenyl]phenyl]-(2-chloro-5-nitrophenyl)carboxamide] | 114 | 109 | 110 | 
20 | CCCCCCCCN(CCCC)c1ccc(-c2ccc(NC(=O)c3cc([N+](=O)[O-])ccc3Cl)cc2)cc1.Cl [Example 223, N-[4-[4-(N-Butyl-N-octylamino)phenyl]phenyl]-(2-chloro-5-nitrophenyl)carboxamide mono-hydrochloride] |  |  |  | Facilitating activity to produce leptin (1 μM): 115.9%; Facilitating activity to produce leptin (10 nm): 109.0%; Facilitating activity to produce leptin (100 nm): 115.2%
21 | CCCCCCCCN(CCC)c1ccc(-c2ccc(NC(=O)c3cc([N+](=O)[O-])ccc3Cl)cc2)cc1 [Example 224, N-[4-[4-(N-Octyl-N-propylamino)phenyl]phenyl]-(2-chloro-5-nitrophenyl)carboxamide] | 113 | 112 | 110 | 
22 | CCCCCCCCN(CC)c1ccc(-c2ccc(NC(=O)c3cc([N+](=O)[O-])ccc3Cl)cc2)cc1 [Example 225, N-[4-[4-(N-Ethyl-N-octylamino)phenyl]phenyl]-(2-chloro-5-nitrophenyl)carboxamide] | 117 | 108 | 107 | 
23 | O=C(Nc1ccc(N2CCN(C(=O)c3ccncc3)CC2)cc1)c1cc([N+](=O)[O-])ccc1Cl [Example 228, N-[4-[4-(Pyridin-4-ylcarbonyl)piperazin-1-yl]phenyl]-(2-chloro-5-nitrophenyl)carboxamide] | 112 | 122 | 119 | 
24 | O=C(Nc1ccc(CCO)cc1)c1cc([N+](=O)[O-])ccc1Cl [Example 230, N-[4-(2-Hydroxyethyl)phenyl]-(2-chloro-5-nitrophenyl)carboxamide] |  |  | 110 | 
25 | O=C(Nc1ccc(-n2ccnc2)cc1)c1cccc(NC(=O)c2cc([N+](=O)[O-])ccc2Cl)c1 [Example 231, N-[[3-[4-(Imidazol-1-yl)phenyl]aminocarbonyl]phenyl]-(2-chloro-5-nitrophenyl)carboxamide] |  | 155 | 128 | 
26 | Nc1nc(-c2cccc(NC(=O)c3cc([N+](=O)[O-])ccc3Cl)c2)cs1 [Example 233, N-[3-(2-Amiothiazol-4-yl)phenyl]-(2-chloro-5-nitrophenyl)carboxamide] |  | 121 | 112 | 
27 | CS(=O)(=O)N(c1ccc(-c2ccc(NC(=O)c3cc([N+](=O)[O-])ccc3Cl)cc2)cc1)S(C)(=O)=O [Example 235, N-[4-[4-(N,N-Dimethanesulfonylamino)phenyl]phenyl]-(2-chloro-5-nitrophenyl)carboxamide] | 143 | 121 | 111 | 
28 | O=C(Nc1ccc(-c2ccc(NC(=S)Nc3ccncc3)cc2)cc1)c1cc([N+](=O)[O-])ccc1Cl [Example 258, N-[4-[4-[(Pyridin-4-yl)aminothiocarbonylamino]phenyl]phenyl]-(2-chloro-5-nitrophenyl)carboxamide] | 112 | 114 | 120 | 
29 | O=C(Nc1ccc(NC(=S)Nc2ccncc2)cc1)c1cc([N+](=O)[O-])ccc1Cl [Example 259, N-[4-[(Pyridin-4-yl)aminothiocarbonylamino]phenyl]-(2-chloro-5-nitrophenyl)carboxamide] |  | 110 | 111 | 
30 | NCCc1ccc(NC(=O)c2cc([N+](=O)[O-])ccc2Cl)cc1 [Example 267, N-[4-(2-Aminoethyl)phenyl]-(2-chloro-5-nitrophenyl)carboxamide] |  | 110 | 118 | 
31 | N-[4-(Pyrrolidinylsulfonyl)phenyl]-(2-chloro-5-nitrophenyl)carboxamide [Example 152] |  |  |  | Facilitating activity to produce leptin (100 nm): 116.4%

Reference: patent US20030134859A1 (SANKYO COMPANY, LIMITED, priority 2000, published 2003)
